# Assay results from patent US20240287138A1, “CYCLIC PEPTIDES FOR INHIBITING TNF RECEPTOR 1 ACTIVITY” (Merck Sharp & Dohme LLC, priority 2023, published 2024).
# Numbered stars: 1 amine (or outer) side, 2 acyl side, 3 side chain; on linkers, the order of the positions; unused ones are H or OH. Bridge positions count the residues as written; N and C are the ends. Square brackets hold non-standard residues; d marks the D form. Peptide text beside a SMILES is read from it. Trp(βS-Me,7-OMe) = COc1cccc2c([C@H](C)[C@H](N)C(=O)O)c[nH]c12; Ala(1-bicyclo(1.1.1)pentyl) = N[C@@H](CC12CC(C1)C2)C(=O)O; Phe(3-CH2NH2) = O=C([C@H](Cc1cccc(CN[*:3])c1)N[*:1])[*:2]; X5 = COc1cccc2[nH]cc([C@H](C)[C@H](N[*:1])C(=O)[*:2])c12; Trp(βS-Me) = C[C@@H](c1c[nH]c2ccccc12)[C@H](N)C(=O)O; Phe(4-CH2COOH) = N[C@@H](Cc1ccc(CC(=O)O)cc1)C(=O)O; Trp(4-Cl) = N[C@@H](Cc1c[nH]c2cccc(Cl)c12)C(=O)O; Trp(7-Cl) = N[C@@H](Cc1c[nH]c2c(Cl)cccc12)C(=O)O; Phe(3-CONH2) = NC(=O)c1cccc(C[C@H](N)C(=O)O)c1; Phe(4-CONH2) = NC(=O)c1ccc(C[C@H](N)C(=O)O)cc1; Phe(4-COOH) = N[C@@H](Cc1ccc(C(=O)O)cc1)C(=O)O; Trp(7-aza) = N[C@@H](Cc1c[nH]c2ncccc12)C(=O)O; Phe(4-CH2NH2) = NCc1ccc(C[C@H](N)C(=O)O)cc1; Trp(1-Me) = Cn1cc(C[C@H](N)C(=O)O)c2ccccc21; dPro(cis-4-NH2) = N[C@H]1CN[C@@H](C(=O)O)C1; αMeW = C[C@](N)(Cc1c[nH]c2ccccc12)C(=O)O; N(CH2CH2COOH)Gly = O=C(O)CCNCC(=O)O; Pip(4-aza) = O=C(O)[C@@H]1CNCCN1; 4Pal = N[C@@H](Cc1ccncc1)C(=O)O; NMeE = CN[C@@H](CCC(=O)O)C(=O)O; Cit = NC(=O)NCCC[C@H](N)C(=O)O; NMeN = CN[C@@H](CC(N)=O)C(=O)O; NMeS = CN[C@@H](CO)C(=O)O; Pip = O=C(O)[C@@H]1CCCCN1; αMeS = C[C@](N)(CO)C(=O)O; Nle = CCCC[C@H](N)C(=O)O; Sar = CNCC(=O)O
# Columns and labels:
# [1] = biological target: T1, TNFα-induced NF-κB signal transduction pathway (TNFR1 signaling) in THP-1 cells (Homo sapiens, UniProt P19438); assay: THP-1 Lucia NF-κB reporter cell assay, inhibition of TNFα-induced NF-κB signaling; format: cell-based; details: THP-1 NF-κB Lucia reporter cells, 10 ng/mL TNFα, 16-18 h, secreted luciferase; read-out: THP-1 IC50
# T1 sequence (P19438 30-455): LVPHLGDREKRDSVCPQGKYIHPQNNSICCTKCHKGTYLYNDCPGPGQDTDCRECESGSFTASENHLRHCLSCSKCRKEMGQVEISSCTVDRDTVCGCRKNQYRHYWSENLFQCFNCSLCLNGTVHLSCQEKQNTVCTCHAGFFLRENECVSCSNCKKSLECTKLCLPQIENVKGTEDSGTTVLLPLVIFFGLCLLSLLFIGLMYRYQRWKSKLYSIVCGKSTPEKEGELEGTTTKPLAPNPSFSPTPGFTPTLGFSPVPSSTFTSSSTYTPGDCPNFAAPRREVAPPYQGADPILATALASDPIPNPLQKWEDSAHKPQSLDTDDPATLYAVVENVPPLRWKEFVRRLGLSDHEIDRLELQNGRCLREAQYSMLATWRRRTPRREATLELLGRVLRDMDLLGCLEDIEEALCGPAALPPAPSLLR
# Summary of the method: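 IC50 from a 4-parameter logistic fit of secreted luciferase luminescence (QUANTI-Luc), normalised to min/max controls. Reporter THP-1 cells were exposed to peptides for 1 h at 37 °C before 10 ng/mL TNFα (final) was added overnight (16–18 h).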
# [2] = biological target: T2, human TNFR1 extracellular domain (ECD) protein (Homo sapiens, UniProt P19438); assay: SPR binding affinity to captured human TNFR1 ECD
# T2 construct: HRV 3C protease cleavage site (C); 6His (C, cleaved yes); made in house; host or cells: Sf21 insect cells (baculovirus), secreted
# T2 sequence (P19438 30-211): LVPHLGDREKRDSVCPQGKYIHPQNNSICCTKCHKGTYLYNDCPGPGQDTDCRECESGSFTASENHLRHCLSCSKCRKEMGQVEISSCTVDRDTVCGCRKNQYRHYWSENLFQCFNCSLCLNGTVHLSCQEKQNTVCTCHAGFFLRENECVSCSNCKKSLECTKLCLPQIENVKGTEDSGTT
# Summary of the method: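 Insect-cell human receptor ECDs, enzymatically biotinylated, immobilized via streptavidin capture chip. Peptide binding and dissociation measured in RU in pH 7.4 HEPES buffer containing 2% DMSO; chip regenerated per analyte. Rate constants give affinity.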
Structure (SMILES),IC50 [1] [nM],Kd [2] [nM]
CCCC[C@@H]1NC(=O)CSC[C@@H](C(N)=O)NC(=O)[C@](C)(Cc2c[nH]c3ccccc23)NC(=O)CN(C)C(=O)[C@H](Cc2ccc(O)cc2)NC(=O)[C@H](Cc2cccc(C(N)=O)c2)NC(=O)[C@](C)(CO)NC(=O)[C@H](Cc2c[nH]c3c(Cl)cccc23)NC(=O)[C@H](Cc2ccncc2)NC(=O)[C@H](CC(N)=O)NC(=O)[C@H](CCC(=O)O)N(C)C(=O)[C@H](Cc2c[nH]c3ncccc23)NC(=O)[C@H](CO)NC(=O)[C@H](Cc2ccc(CN)cc2)NC1=O [SEQ ID NO. 205] ({CH2CO}-[Nle][Phe(4-CH2NH2)]S[Trp(7-aza)][NMeE]N[4Pal][Trp(7-Cl)][αMeS][Phe(3-CONH2)]Y[Sar][αMeW]C-NH2; thioether N-14),7.2,0.6
CCCC[C@@H]1NC(=O)CSC[C@@H](C(N)=O)NC(=O)[C@H]([C@@H](C)c2c[nH]c3cccc(OC)c23)NC(=O)CN(C)C(=O)[C@H](Cc2ccc(O)cc2)NC(=O)[C@H](Cc2ccc(C(N)=O)cc2)NC(=O)[C@](C)(CO)NC(=O)[C@H](Cc2c[nH]c3c(Cl)cccc23)NC(=O)[C@H](Cc2ccc(C(=O)O)cc2)NC(=O)[C@H](CC(N)=O)NC(=O)[C@H](CCC(=O)O)N(C)C(=O)[C@H](Cc2c[nH]c3ncccc23)NC(=O)[C@H](CO)N(C)C(=O)[C@H](Cc2ccncc2)NC1=O [SEQ ID NO. 209] ({CH2CO}-[Nle][4Pal][NMeS][Trp(7-aza)][NMeE]N[Phe(4-COOH)][Trp(7-Cl)][αMeS][Phe(4-CONH2)]Y[Sar][X5]C-NH2; thioether N-14),2.7,0.4
"CCCC[C@@H]1NC(=O)CSC[C@@H](C(N)=O)NC(=O)[C@H]([C@@H](C)c2c[nH]c3c(OC)cccc23)NC(=O)CN(C)C(=O)[C@H](Cc2ccc(O)cc2)NC(=O)[C@H](Cc2ccc(C(=O)O)cc2)NC(=O)[C@](C)(CO)NC(=O)[C@H](Cc2c[nH]c3c(Cl)cccc23)NC(=O)[C@H](Cc2ccc(CC(=O)O)cc2)NC(=O)[C@H](CC(N)=O)NC(=O)[C@H](CCC(=O)O)N(C)C(=O)[C@H](Cc2c[nH]c3ccccc23)NC(=O)[C@@H]2CCCCN2C(=O)[C@H](Cc2ccncc2)NC1=O [SEQ ID NO. 212] ({CH2CO}-[Nle][4Pal][Pip]W[NMeE]N[Phe(4-CH2COOH)][Trp(7-Cl)][αMeS][Phe(4-COOH)]Y[Sar][Trp(βS-Me,7-OMe)]C-NH2; thioether N-14)",2.8,0.5
C[C@@H](c1c[nH]c2ccccc12)[C@@H]1NC(=O)CN(C)C(=O)[C@H](Cc2c[nH]cn2)NC(=O)[C@H](Cc2ccc(C(=O)O)cc2)NC(=O)[C@](C)(CO)NC(=O)[C@H](Cc2c[nH]c3c(Cl)cccc23)NC(=O)[C@H](Cc2ccc(C(=O)O)cc2)NC(=O)[C@H](CC(N)=O)NC(=O)[C@H]2CCCN2C(=O)[C@H]([C@@H](C)c2c[nH]c3ccccc23)NC(=O)[C@H](CO)NC(=O)[C@H](Cc2ccc(CN)cc2)NC(=O)[C@H](CCCNC(N)=O)NC(=O)CSC[C@@H](C(N)=O)NC1=O [SEQ ID NO. 215] ({CH2CO}-[Cit][Phe(4-CH2NH2)]S[Trp(βS-Me)][dP]N[Phe(4-COOH)][Trp(7-Cl)][αMeS][Phe(4-COOH)]H[Sar][Trp(βS-Me)]C-NH2; thioether N-14),9.7,1.8
"CCCC[C@@H]1NC(=O)CSC[C@@H](C(N)=O)NC(=O)[C@H]([C@@H](C)c2c[nH]c3c(OC)cccc23)NC(=O)CN(C)C(=O)[C@H](Cc2ccc(O)cc2)NC(=O)[C@H](Cc2ccc(C(=O)O)cc2)NC(=O)[C@](C)(CO)NC(=O)[C@H](Cc2c[nH]c3c(Cl)cccc23)NC(=O)[C@H](Cc2ccc(OC)cc2)NC(=O)[C@H](CC(N)=O)NC(=O)[C@H](CCC(=O)O)N(C)C(=O)[C@H](Cc2c[nH]c3ccccc23)NC(=O)[C@@H]2CNCCN2C(=O)[C@H](Cc2ccncc2)NC1=O [SEQ ID NO. 218] ({CH2CO}-[Nle][4Pal][Pip(4-aza)]W[NMeE]NY(Me)[Trp(7-Cl)][αMeS][Phe(4-COOH)]Y[Sar][Trp(βS-Me,7-OMe)]C-NH2; thioether N-14)",3.4,0.5
"CCCC[C@@H]1NC(=O)CSC[C@@H](C(N)=O)NC(=O)[C@H]([C@@H](C)c2c[nH]c3c(OC)cccc23)NC(=O)CN(C)C(=O)[C@H](Cc2ccc(O)cc2)NC(=O)[C@H](Cc2ccc(C(N)=O)cc2)NC(=O)[C@](C)(CO)NC(=O)[C@H](Cc2c[nH]c3c(Cl)cccc23)NC(=O)[C@H](Cc2ccncc2)NC(=O)[C@H](CC(N)=O)NC(=O)[C@H]2C[C@@H](N)CN2C(=O)[C@H](Cc2c[nH]c3ncccc23)NC(=O)[C@@H]2CNCCN2C(=O)[C@H](Cc2ccncc2)NC1=O [SEQ ID NO. 219] ({CH2CO}-[Nle][4Pal][Pip(4-aza)][Trp(7-aza)][dPro(cis-4-NH2)]N[4Pal][Trp(7-Cl)][αMeS][Phe(4-CONH2)]Y[Sar][Trp(βS-Me,7-OMe)]C-NH2; thioether N-14)",1.6,0.1
"CCCC[C@@H]1NC(=O)CSC[C@@H](C(N)=O)NC(=O)[C@H]([C@@H](C)c2c[nH]c3c(OC)cccc23)NC(=O)CN(C)C(=O)[C@H](Cc2ccc(O)cc2)NC(=O)[C@H](Cc2ccc(C(=O)O)cc2)NC(=O)[C@](C)(CO)NC(=O)[C@H](Cc2c[nH]c3c(Cl)cccc23)NC(=O)[C@H](Cc2ccncc2)NC(=O)[C@H](CC(N)=O)NC(=O)CN(CCC(=O)O)C(=O)[C@H](Cc2c[nH]c3ncccc23)NC(=O)[C@@H]2CCCCN2C(=O)[C@H](Cc2ccncc2)NC1=O [SEQ ID NO. 220] ({CH2CO}-[Nle][4Pal][Pip][Trp(7-aza)][N(CH2CH2COOH)Gly]N[4Pal][Trp(7-Cl)][αMeS][Phe(4-COOH)]Y[Sar][Trp(βS-Me,7-OMe)]C-NH2; thioether N-14)",2.9,0.25
CN1CC(=O)N[C@@H](Cc2c[nH]c3cccc(Cl)c23)C(=O)N[C@H](C(N)=O)CSCC(=O)N[C@@H](CC23CC(C2)C3)C(=O)N[C@@H](Cc2cccc(CN)c2)C(=O)N[C@@H](CO)C(=O)N[C@@H](Cc2c[nH]c3c(Cl)cccc23)C(=O)N2CCC[C@@H]2C(=O)N(C)[C@@H](CC(N)=O)C(=O)N[C@@H](Cc2ccc(C(=O)O)cc2)C(=O)N[C@@H](Cc2c[nH]c3c(Cl)cccc23)C(=O)N[C@@](C)(CO)C(=O)N[C@@H](Cc2ccc(C(=O)O)cc2)C(=O)N[C@@H](Cc2cccc(CN)c2)C1=O [SEQ ID NO. 222] ({CH2CO}-[Ala(1-bicyclo(1.1.1)pentyl)][Phe(3-CH2NH2)]S[Trp(7-Cl)][dP][NMeN][Phe(4-COOH)][Trp(7-Cl)][αMeS][Phe(4-COOH)][Phe(3-CH2NH2)][Sar][Trp(4-Cl)]C-NH2; thioether N-14),5.7,0.18
CCCC[C@@H]1NC(=O)CSC[C@@H](C(N)=O)NC(=O)[C@H](Cc2cn(C)c3ccccc23)NC(=O)CN(C)C(=O)[C@H](Cc2ccc(O)cc2)NC(=O)[C@H](Cc2ccc(C(=O)O)cc2)NC(=O)[C@](C)(CO)NC(=O)[C@H](Cc2c[nH]c3c(Cl)cccc23)NC(=O)[C@H](Cc2ccncc2)NC(=O)[C@H](CC(N)=O)NC(=O)[C@H](CCC(=O)O)N(C)C(=O)[C@H](Cc2c[nH]c3ncccc23)NC(=O)[C@H](CO)NC(=O)[C@H](Cc2ccncc2)NC1=O [SEQ ID NO. 223] ({CH2CO}-[Nle][4Pal]S[Trp(7-aza)][NMeE]N[4Pal][Trp(7-Cl)][αMeS][Phe(4-COOH)]Y[Sar][Trp(1-Me)]C-NH2; thioether N-14),2.9,0.3
CCCC[C@@H]1NC(=O)CSC[C@@H](C(N)=O)NC(=O)[C@](C)(Cc2c[nH]c3ccccc23)NC(=O)CN(C)C(=O)[C@H](Cc2ccc(O)cc2)NC(=O)[C@H](Cc2ccc(CC(=O)O)cc2)NC(=O)[C@](C)(CO)NC(=O)[C@H](Cc2c[nH]c3c(Cl)cccc23)NC(=O)[C@H](Cc2ccncc2)NC(=O)[C@H](CC(N)=O)NC(=O)[C@H](CCC(=O)O)N(C)C(=O)[C@H](Cc2c[nH]c3ncccc23)NC(=O)[C@H](CO)NC(=O)[C@H](Cc2ccc(CN)cc2)NC1=O [SEQ ID NO. 224] ({CH2CO}-[Nle][Phe(4-CH2NH2)]S[Trp(7-aza)][NMeE]N[4Pal][Trp(7-Cl)][αMeS][Phe(4-CH2COOH)]Y[Sar][αMeW]C-NH2; thioether N-14),4.8,0.4
